Patent US8415469B2, “Compounds and methods for kinase modulation, and indications therefor” (Plexxikon Inc., priority 2005, dated 2013)

Assays:
Format in all cases: biochemical
Flt1 = molecular target: T1, Flt1 (Homo sapiens, UniProt P17948); experiment: AlphaScreen kinase assay, Flt1; conditions: read-out: IC50, activity toward kinase Flt1
T1 construct: P1826.pETN6 BI-PTP FLT1 M799-D1165-X WT; His6 (N); made in house; host or cells: E. coli (PTP1B co-expressed)
T1 sequence (P17948 with tags, fused parts or gaps): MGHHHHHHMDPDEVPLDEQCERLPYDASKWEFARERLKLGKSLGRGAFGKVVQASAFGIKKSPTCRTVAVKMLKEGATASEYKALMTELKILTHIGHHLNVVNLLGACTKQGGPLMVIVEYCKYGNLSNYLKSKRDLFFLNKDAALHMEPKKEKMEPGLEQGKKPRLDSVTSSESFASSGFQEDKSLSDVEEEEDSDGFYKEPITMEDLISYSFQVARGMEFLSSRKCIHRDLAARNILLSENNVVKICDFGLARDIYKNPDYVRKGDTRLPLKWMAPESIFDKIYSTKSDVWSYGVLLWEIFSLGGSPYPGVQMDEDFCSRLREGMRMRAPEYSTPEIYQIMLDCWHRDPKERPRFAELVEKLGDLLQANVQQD

c-Raf-1 = molecular target: T2, c-Raf-1 (Homo sapiens, UniProt P04049); experiment: AlphaScreen kinase assay, c-Raf-1; conditions: read-out: IC50, activity toward kinase c-Raf-1
T2 construct: purchased Upstate Biotechnology

Fms = molecular target: T3, Fms (Homo sapiens, UniProt P07333); experiment: AlphaScreen kinase assay, Fms; conditions: read-out: IC50, activity toward kinase Fms
T3 construct: purchased Upstate Biotechnology

B-Raf = molecular target: T4, B-Raf (Homo sapiens, UniProt P15056); experiment: AlphaScreen kinase assay, B-Raf; conditions: read-out: IC50, activity toward kinase B-Raf
T4 construct: purchased Upstate Biotechnology

Kit = molecular target: T5, Kit (Homo sapiens, UniProt P10721); experiment: AlphaScreen kinase assay, Kit; conditions: read-out: IC50, activity toward kinase Kit
T5 construct: P1332.N6 BI PTP KIT M552-K948-X COD; His6 (N); made in house; host or cells: E. coli (PTP1B co-expressed)

B-Raf V600E = molecular target: T6, B-Raf V600E (Homo sapiens, UniProt P15056, V600E); experiment: AlphaScreen kinase assay, B-Raf V600E; conditions: read-out: IC50, activity toward kinase B-Raf V600E
T6 construct: P4254. pFastBacBD-CDC37 BRAF D437-K722-X, V600E; His6 with pFastBac HT leader (TEV site) (N); made in house; host or cells: Sf9 (baculovirus; chaperone CDC37 co-expressed)

FGFR1 = molecular target: T7, FGFR1 (Homo sapiens, UniProt P11362, C488A/C584S); experiment: AlphaScreen kinase assay, FGFR1; conditions: read-out: IC50, activity toward kinase FGFR
T7 construct: P1351.pET N6 BI-PTP FGFR A458-E765-X C488A, C584S; made in house; host or cells: E. coli (PTP1B co-expressed)

Met = molecular target: T8, Met (Homo sapiens, UniProt P08581); experiment: AlphaScreen kinase assay, Met; conditions: read-out: IC50, activity toward kinase Met
T8 construct: P1818.pETN6 BI-PTP MET G1056-G1364-X WT; His6 (N); made in house; host or cells: E. coli (PTP1B co-expressed)
Source text: AlphaScreen assay was used to screen additional kinases. The assay is similarly dependent on the phosphorylation of a peptide substrate. In this assay, an antibody that recognizes phosphorylated substrate is bound to an acceptor bead. The peptide substrate is attached to biotin, which binds to a donor head that contains streptavidin. Thus phosphorylated substrate is bound by antibody and streptavidin, bringing the donor and acceptor heads into close proximity when kinase is not inhibited. The donor produces singlet oxygen which results in emission from the acceptor when they are in close proximity. Conversely, when kinase is inhibited, the donor and acceptor beads are not associated and the emission from the acceptor is reduced.
AlphaScreen assays were done using compounds dissolved in DMSO to a concentration of 20 mM. The compounds were diluted accordingly to the desired final concentrations in each sample well, using 1:3 serial dilution for a total of 8 concentration points.

Jnk3 = molecular target: T9, Jnk3 (Homo sapiens, UniProt P53779); experiment: AlphaScreen kinase assay, Jnk3; conditions: read-out: IC50, activity toward kinase Jnk3
T9 construct: purchased Upstate Biotechnology

Ret = molecular target: T10, Ret (Homo sapiens, UniProt P07949); experiment: AlphaScreen kinase assay, Ret; conditions: read-out: IC50, activity toward kinase Ret
T10 construct: P1378.pET-SF BI-PTP RET H661-R1012 HIS; made in house
T10 sequence (P07949 with tags, fused parts or gaps): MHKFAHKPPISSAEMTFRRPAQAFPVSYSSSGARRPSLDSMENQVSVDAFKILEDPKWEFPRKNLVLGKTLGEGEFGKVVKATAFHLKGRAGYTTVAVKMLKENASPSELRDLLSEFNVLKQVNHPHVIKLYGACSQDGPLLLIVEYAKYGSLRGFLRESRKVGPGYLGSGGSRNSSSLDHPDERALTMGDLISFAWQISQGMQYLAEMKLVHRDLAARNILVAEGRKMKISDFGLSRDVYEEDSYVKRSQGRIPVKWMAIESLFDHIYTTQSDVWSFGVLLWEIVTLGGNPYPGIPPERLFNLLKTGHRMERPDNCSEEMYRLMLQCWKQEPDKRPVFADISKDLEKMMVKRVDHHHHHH

Kdr = molecular target: T11, Kdr (Homo sapiens, UniProt P35968); experiment: Z'-Lyte FRET kinase assay (Invitrogen), Kdr; conditions: read-out: IC50, activity toward kinase Kdr
T11 construct: purchased Invitrogen (assay run by Invitrogen)

Jnk1 = molecular target: T12, Jnk1 (Homo sapiens, UniProt P45983); experiment: AlphaScreen kinase assay, Jnk1; conditions: read-out: IC50, activity toward kinase Jnk1
T12 construct: purchased Upstate Biotechnology
Description: AlphaScreen assays were done using compounds dissolved in DMSO to a concentration of 20 mM. The compounds were diluted accordingly to the desired final concentrations in each sample well, using 1:3 serial dilution for a total of 8 concentration points. Plates were prepared such that each kinase reaction is 20 μl in 1× kinase buffer, 5% DMSO and 10 μM ATP. After incubation of the kinase reaction for 1 hour at room temperature, 5 μl of donor beads in stop buffer (50 mM EDTA in 1× kinase buffer) was added, the sample was mixed and incubated for 20 minutes at room temperature before adding 5 μl of acceptor beads in stop buffer. The samples were incubated for 60 minutes at room temperature and the signal per well was read on AlphaQuest reader.

Jnk2 = molecular target: T13, Jnk2 (Homo sapiens, UniProt P45984); experiment: AlphaScreen kinase assay, Jnk2; conditions: read-out: IC50, activity toward kinase Jnk2
T13 construct: purchased Roche Protein Expression Group (Indianapolis, IN)
Method in brief: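 Stock 20 mM compound in DMSO, diluted 1:3 serially to 8 final concentrations. Kinase phosphorylates biotinylated peptide; donor (streptavidin) and acceptor (anti-phospho antibody) beads then associate. Reduced acceptor emission indicates inhibition.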

Fak = molecular target: T14, Fak (Homo sapiens, UniProt Q05397); experiment: AlphaScreen kinase assay, Fak; conditions: read-out: IC50, activity toward kinase Fak
T14 construct: P1358.pFastBacHtb FAK S411-Q686-X; His6 with pFastBacHTb leader (TEV site) (N); made in house; host or cells: Sf9 (baculovirus)

Src = molecular target: T15, Src (Homo sapiens, UniProt P12931); experiment: AlphaScreen kinase assay, Src; conditions: read-out: IC50, activity toward kinase Src
T15 construct: P1144. pET-N6 BI-PTP SRC V86-L536-X; made in house

Stk6 = molecular target: T16, Stk6 (Homo sapiens, UniProt O14965); experiment: Z'-Lyte FRET kinase assay (Invitrogen), Stk6; conditions: read-out: IC50, activity toward kinase Stk6
T16 construct: purchased Invitrogen (Carlsbad, Calif.), screening service
T16 sequence (O14965 1-403): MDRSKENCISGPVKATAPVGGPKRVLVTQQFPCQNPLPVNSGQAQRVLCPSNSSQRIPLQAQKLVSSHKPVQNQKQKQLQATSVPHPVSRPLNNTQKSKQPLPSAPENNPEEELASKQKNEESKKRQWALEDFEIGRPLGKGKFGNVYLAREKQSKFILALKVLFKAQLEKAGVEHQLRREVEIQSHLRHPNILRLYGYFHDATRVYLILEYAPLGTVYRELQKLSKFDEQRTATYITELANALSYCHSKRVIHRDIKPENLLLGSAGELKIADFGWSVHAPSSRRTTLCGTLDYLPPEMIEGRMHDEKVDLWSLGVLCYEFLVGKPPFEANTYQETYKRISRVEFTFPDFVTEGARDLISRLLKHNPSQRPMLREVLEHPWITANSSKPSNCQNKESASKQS
Source text: For example, direct radiometric, indirect FRET or AlphaScreen assays may be used to assess the level of phosphorylation of a substrate in the presence of test compounds in order to determine the inhibitory affect of the compound on the kinase. […] For these assays, compounds of the invention were screened by Invitrogen using Z′-Lyte™ kinase assay.
Briefly, the Invitrogen kinase assay involves use of a specific peptide substrate optimized for each kinase, containing a fluorophore at each end that make up the FRET pair. The peptide sensitivity to proteolytic cleavage depends on phosphorylation of the peptide. Non-phosphorylated peptide is cleaved by a protease while peptide phosphorylated by the kinase is not cleaved. Cleavage of the peptide disrupts the FRET between the donor (coumarin) and acceptor (fluorescein) fluorophores, resulting in an increase in the ratio of donor emission to acceptor emission. The emission ratio of coumarin to fluorescein is used to assess the reaction progress. […] Thus, the assay involves a kinase reaction in the presence of varying concentrations of a given compound, a development reaction with site specific protease, and detection of the fluorescent emission ratio of coumarin and fluorscein. […] Reaction conditions for each kinase are determined to provide optimal reaction times, incubation temperature, kinase and ATP concentrations. Test samples are made up in 1× kinase buffer (50 mM HEPES pH 7.5, 50 mM MgCl2, 5 mM EGTA, 0.05% BRIJ-35) and compound at desired concentration prepared in DMSO such that the final DMSO is 1%. […] All kinase except for MAP2K1 were at 10 μM ATP in the kinase reaction, while MAP2K1 was at 100 μM. Samples are mixed and the kinase reaction is incubated 1 hour at room temperature, after which 5 μl of development solution is added and mixed. After incubation for another 1 hour at room temperature, 5 μl of stop reagent is added to each sample and mixed. The fluorescence signals are measured to determine the emission ratio.

Measured: IC50

T12 sequence (P45983 whole entry): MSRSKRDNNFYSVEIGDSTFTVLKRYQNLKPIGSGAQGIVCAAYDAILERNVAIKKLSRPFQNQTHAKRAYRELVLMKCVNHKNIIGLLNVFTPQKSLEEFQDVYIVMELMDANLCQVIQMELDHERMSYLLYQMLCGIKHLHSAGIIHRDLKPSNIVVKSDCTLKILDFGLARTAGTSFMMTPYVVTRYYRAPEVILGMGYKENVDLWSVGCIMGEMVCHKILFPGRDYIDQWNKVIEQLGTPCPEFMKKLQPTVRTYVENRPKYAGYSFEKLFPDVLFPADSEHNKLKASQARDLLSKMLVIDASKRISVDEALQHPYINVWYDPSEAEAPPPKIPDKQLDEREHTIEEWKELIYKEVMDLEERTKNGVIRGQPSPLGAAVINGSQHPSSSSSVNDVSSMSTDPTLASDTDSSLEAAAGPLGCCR
T8 sequence (P08581 with tags, fused parts or gaps): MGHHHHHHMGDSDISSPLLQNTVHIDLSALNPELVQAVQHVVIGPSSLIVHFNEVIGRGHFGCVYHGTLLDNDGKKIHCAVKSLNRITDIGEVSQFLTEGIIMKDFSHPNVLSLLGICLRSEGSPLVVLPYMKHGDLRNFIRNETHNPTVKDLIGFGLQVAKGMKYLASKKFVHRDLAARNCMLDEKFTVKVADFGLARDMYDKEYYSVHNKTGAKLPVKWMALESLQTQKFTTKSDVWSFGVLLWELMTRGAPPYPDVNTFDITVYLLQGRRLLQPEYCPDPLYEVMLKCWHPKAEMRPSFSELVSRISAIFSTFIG
T3 sequence (P07333 20-972): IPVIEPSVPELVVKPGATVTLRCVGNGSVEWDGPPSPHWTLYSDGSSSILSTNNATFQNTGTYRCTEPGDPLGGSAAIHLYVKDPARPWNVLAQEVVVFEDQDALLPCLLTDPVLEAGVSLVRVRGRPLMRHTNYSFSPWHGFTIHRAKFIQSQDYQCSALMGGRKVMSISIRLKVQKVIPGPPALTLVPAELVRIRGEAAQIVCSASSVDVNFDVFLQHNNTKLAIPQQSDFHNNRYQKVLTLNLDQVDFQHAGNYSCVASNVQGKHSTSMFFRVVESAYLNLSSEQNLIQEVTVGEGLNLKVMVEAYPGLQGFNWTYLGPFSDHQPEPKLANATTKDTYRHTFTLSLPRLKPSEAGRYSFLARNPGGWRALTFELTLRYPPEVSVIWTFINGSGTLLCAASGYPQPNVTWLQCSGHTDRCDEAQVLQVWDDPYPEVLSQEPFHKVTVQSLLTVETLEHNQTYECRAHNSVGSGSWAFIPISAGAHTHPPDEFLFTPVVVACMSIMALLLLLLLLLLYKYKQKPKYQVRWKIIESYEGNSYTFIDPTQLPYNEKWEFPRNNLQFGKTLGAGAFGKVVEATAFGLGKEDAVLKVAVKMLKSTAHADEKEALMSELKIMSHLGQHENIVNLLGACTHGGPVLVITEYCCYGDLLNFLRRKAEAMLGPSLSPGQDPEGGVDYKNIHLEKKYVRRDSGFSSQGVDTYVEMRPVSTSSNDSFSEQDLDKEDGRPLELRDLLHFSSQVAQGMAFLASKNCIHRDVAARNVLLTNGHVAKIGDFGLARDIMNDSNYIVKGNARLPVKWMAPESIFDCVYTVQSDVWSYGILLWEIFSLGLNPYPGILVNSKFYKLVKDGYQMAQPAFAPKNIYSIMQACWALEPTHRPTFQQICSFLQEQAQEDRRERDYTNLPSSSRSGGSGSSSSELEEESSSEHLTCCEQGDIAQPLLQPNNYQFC
T13 sequence (P45984 whole entry): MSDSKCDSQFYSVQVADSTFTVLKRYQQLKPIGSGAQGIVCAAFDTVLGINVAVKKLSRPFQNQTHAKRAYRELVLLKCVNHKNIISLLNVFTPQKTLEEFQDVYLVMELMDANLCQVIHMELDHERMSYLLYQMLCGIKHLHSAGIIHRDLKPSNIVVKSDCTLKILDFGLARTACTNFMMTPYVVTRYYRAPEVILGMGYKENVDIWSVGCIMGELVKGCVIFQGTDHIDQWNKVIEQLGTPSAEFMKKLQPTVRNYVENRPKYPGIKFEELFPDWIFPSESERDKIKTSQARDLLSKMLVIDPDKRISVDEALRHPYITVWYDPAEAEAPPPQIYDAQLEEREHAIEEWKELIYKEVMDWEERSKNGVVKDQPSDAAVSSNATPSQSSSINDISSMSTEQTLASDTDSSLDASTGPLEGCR
T9 sequence (P53779 whole entry): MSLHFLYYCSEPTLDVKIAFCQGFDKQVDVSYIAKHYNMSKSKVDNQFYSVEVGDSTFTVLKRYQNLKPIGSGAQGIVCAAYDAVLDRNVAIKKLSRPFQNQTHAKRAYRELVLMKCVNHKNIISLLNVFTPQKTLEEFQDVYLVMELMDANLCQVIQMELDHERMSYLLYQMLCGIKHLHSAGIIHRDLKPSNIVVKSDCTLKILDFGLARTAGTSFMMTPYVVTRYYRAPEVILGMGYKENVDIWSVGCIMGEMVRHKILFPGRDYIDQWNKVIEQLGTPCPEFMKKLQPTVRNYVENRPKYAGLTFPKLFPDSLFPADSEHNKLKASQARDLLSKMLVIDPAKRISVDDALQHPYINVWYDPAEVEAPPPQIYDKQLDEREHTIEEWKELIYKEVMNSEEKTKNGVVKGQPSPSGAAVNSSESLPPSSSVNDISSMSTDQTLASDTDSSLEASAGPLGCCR
T11 sequence (P35968 20-1356): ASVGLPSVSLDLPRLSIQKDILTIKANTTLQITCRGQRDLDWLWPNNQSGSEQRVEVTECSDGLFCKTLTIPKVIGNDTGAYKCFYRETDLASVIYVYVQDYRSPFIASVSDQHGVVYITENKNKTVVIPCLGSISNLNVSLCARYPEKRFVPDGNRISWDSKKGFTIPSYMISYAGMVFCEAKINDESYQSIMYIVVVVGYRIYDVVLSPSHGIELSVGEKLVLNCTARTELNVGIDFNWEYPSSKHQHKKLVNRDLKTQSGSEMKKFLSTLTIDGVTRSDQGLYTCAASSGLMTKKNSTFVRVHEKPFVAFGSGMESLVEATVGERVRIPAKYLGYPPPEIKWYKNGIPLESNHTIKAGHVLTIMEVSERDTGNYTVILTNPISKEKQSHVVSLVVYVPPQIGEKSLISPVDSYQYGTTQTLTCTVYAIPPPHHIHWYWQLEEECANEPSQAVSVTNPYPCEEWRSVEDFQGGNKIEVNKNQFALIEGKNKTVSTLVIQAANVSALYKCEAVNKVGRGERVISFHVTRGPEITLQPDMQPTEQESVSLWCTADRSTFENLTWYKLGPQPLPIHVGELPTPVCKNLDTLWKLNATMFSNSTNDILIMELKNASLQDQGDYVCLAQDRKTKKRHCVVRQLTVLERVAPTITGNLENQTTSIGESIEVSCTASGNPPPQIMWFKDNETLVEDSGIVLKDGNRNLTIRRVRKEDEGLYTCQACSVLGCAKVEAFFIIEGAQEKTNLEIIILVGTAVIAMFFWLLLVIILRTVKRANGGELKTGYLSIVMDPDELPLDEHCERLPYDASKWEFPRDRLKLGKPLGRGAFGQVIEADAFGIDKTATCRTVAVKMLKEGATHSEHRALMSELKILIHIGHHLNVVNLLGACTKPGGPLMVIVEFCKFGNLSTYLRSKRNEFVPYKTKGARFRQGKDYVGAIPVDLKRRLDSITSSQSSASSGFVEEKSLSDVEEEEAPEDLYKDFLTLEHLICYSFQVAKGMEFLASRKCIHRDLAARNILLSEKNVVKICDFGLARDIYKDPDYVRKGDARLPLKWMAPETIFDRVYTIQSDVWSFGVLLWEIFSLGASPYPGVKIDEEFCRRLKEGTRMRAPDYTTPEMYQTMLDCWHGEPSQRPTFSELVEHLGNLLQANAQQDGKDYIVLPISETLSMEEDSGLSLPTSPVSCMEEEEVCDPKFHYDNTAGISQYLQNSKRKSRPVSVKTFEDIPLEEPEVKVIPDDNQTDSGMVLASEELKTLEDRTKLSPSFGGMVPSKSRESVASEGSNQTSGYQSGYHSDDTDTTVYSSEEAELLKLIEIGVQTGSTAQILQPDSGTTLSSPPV
T6 sequence (P15056 with tags, fused parts or gaps V600E): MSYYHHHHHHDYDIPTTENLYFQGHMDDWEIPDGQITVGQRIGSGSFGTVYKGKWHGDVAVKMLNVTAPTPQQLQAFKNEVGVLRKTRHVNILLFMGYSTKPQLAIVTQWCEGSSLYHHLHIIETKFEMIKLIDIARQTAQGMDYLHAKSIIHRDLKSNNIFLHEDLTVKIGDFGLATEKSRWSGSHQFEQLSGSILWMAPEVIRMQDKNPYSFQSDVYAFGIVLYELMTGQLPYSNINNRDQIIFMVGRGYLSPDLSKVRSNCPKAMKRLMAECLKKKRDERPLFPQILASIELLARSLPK
T2 sequence (P04049 whole entry): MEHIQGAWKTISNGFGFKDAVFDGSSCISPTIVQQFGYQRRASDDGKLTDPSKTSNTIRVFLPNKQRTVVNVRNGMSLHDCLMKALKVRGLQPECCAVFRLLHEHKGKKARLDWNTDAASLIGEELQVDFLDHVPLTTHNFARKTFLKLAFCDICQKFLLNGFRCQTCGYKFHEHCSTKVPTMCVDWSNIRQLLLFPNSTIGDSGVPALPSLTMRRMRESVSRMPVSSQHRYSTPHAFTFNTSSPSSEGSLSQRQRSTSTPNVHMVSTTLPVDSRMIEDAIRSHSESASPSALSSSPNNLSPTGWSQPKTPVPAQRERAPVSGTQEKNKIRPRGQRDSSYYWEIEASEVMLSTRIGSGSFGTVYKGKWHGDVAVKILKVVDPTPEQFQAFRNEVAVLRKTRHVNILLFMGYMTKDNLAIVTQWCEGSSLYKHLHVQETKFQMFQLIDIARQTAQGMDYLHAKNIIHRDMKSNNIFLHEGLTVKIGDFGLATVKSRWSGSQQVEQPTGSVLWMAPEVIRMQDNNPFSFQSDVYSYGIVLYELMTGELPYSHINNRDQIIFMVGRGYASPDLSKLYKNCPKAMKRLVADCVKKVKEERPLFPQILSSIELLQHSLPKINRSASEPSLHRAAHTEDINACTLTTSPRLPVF

CCCS(=O)(=O)Nc1ccc(F)c(C(=O)c2c[nH]c3ncc(Br)cc23)c1F [Compound P-0773, propane-1-sulfonic acid [3-(5-bromo-1H-pyrrolo[2,3-b]pyridine-3-carbonyl)-2,4-difluoro-phenyl]-amide]
≤ 10 µM: Flt1 | c-Raf-1 | Fms | B-Raf | Kit | B-Raf V600E | FGFR1 | Met

CS(=O)(=O)Nc1ccc(F)c(C(=O)c2c[nH]c3ncc(-c4ccccc4)cc23)c1F [Compound P-0184, N-[2,4-Difluoro-3-(5-phenyl-1H-pyrrolo[2,3-b]pyridine-3-carbonyl)-phenyl]-methanesulfonamide]
not listed: Fak | Src | Stk6
≤ 10 µM: all other assays above

CC(C)(C)c1ccc(Nc2cnc3[nH]ccc3c2)cc1 [Compound P-1023]
≤ 10 µM: Kdr | Met

CCOc1ccccc1-c1ccnc2[nH]ccc12 [Compound P-1114]
≤ 10 µM: Fak | Met

O=C(Nc1ccccc1)Nc1ccc(Cc2c[nH]c3ncccc23)cc1 [Compound P-0542]
≤ 10 µM: c-Raf-1 | Ret | Met

O=C(c1c(F)ccc(O)c1F)c1c[nH]c2ncc(-c3cccnc3)cc12 [Compound P-0066, (2,6-Difluoro-3-hydroxy-phenyl)-(5-pyridin-3-yl-1H-pyrrolo[2,3-b]pyridin-3-yl)-methanone]
≤ 10 µM: c-Raf-1 | Jnk3 | B-Raf | Ret | B-Raf V600E | Jnk1 | FGFR1 | Jnk2 | Met

CS(=O)(=O)Nc1cccc(-c2cnc3[nH]cc(C(=O)c4c(F)ccc(OC(F)F)c4F)c3c2)c1 [Compound P-1527, N-{3-[3-(3-Difluoromethoxy-2,6-difluoro-benzoyl)-1H-pyrrolo[2,3-b]pyridin-5-yl]-phenyl}-methanesulfonamide]
≤ 10 µM: Flt1 | Src | Fms | B-Raf | Kit | B-Raf V600E | FGFR1 | Met

Fc1ccc(-c2ccnc3[nH]cc(Sc4cccs4)c23)cc1 [Compound P-0419]
≤ 10 µM: Stk6 | Met

Oc1ncc(F)c(Cc2c[nH]c3ncc(-c4ccsc4)cc23)c1F [Compound P-0822]
≤ 10 µM: Jnk3 | Ret | Met

O=C(c1cccc(Cl)c1F)c1c[nH]c2ncc(-c3cccnc3)cc12 [Compound P-0165, (3-Chloro-2-fluoro-phenyl)-(5-pyridin-3-yl-1H-pyrrolo[2,3-b]pyridin-3-yl)-methanone]
≤ 10 µM: c-Raf-1 | Jnk3 | B-Raf | Ret | Kdr | B-Raf V600E | FGFR1 | Met

CC(=O)c1cccc(Nc2cnc3[nH]ccc3c2)c1 [Compound P-1008]
≤ 10 µM: Flt1 | Jnk3 | Fms | Kit | B-Raf V600E | Jnk1 | FGFR1 | Met

CS(=O)(=O)Nc1ccc(F)c(C(=O)c2c[nH]c3ncc(-c4cccc(C(N)=O)c4)cc23)c1F [Compound P-0721, 3-[3-(2,6-Difluoro-3-methanesulfonylamino-benzoyl)-1H-pyrrolo[2,3-b]pyridin-5-yl]-benzamide]
not listed: Jnk3 | Kdr | Stk6
≤ 10 µM: all other assays above

COC(=O)COc1ccc(F)c(Cc2c[nH]c3ncc(-c4cccnc4)cc23)c1F [Compound P-1465, [2,4-Difluoro-3-(5-pyridin-3-yl-1H-pyrrolo[2,3-b]pyridin-3-ylmethyl)-phenoxy]-acetic acid methyl ester]
≤ 10 µM: Flt1 | Jnk3 | Fms | Kit | B-Raf V600E | Jnk1 | FGFR1 | Met
